Entries after “also recorded” stand apart in the source; their conditions may differ. Where two headings read alike, the source gives them in different places.
Key:
[1] = biological target: T1, mushroom tyrosinase (Agaricus bisporus, UniProt C7FF04); assay: Mushroom tyrosinase inhibitory assay with L-dopa as substrate; type: biochemical; conditions: for inhibition at 100 µM: read-out: % Inhibition at 100 μM;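 on all read-outs here: enzyme activity followed as absorbance change at 475 nm in phosphate buffer pH 6.8, monitored continuously, IC50 derived from percent inhibition dose–response curves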
Method: The mushroom tyrosinase activity assays for the synthetic compounds were conducted using a modified procedure from a previous study. In summary, a 96-well microplate was utilized, and 160 μl of phosphate buffer (50 mM, pH 6.8), 10 μl of mushroom tyrosinase (500 U/ml, dissolved in PBS), and 10 μl of the test compound (dissolved in DMSO) were added to each well. Then, 20 μl of L-dopa (7 mM, dissolved in PBS) was added to initiate the enzymatic reaction. The change in absorbance at 475 nm was continuously monitored using a spectrophotometer. […] The IC50 value, representing the compound’s inhibitory potency, was determined from dose–response curves of percentage inhibition.

[2] = biological target: T1, mushroom tyrosinase; conditions: cited from earlier work
[3] = system: B16F10 cells; set-up: method as in PMID 30856375; conditions: cited from earlier work
[4] = biological target: T1, mushroom tyrosinase; assay: Determination of the inhibition type (Lineweaver–Burk plot analysis)
[5] = L-dopa substrate, ± SD, read-out: IC50 ± SD

T1 sequence (C7FF04 1-392): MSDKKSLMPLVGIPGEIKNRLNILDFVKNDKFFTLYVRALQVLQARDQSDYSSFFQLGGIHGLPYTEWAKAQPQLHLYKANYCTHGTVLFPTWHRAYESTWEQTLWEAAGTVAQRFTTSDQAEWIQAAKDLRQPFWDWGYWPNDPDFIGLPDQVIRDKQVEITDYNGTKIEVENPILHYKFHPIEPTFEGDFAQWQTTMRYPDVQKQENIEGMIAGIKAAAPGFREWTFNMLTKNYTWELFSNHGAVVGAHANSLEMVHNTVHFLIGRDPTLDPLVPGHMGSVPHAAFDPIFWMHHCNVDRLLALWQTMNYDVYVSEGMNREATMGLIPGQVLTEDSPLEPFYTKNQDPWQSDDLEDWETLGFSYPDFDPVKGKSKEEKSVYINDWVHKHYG

For `O=C(OCCN1CCN(c2ccc([N+](=O)[O-])cc2)CC1)c1ccc([N+](=O)[O-])o1` [Compound 4m, 2-(4-(4-Nitrophenyl)piperazin-1-yl)ethyl 5-nitrofuran-2-carboxylate], the inhibition at 100 µM ([1]; 100 μM, L-dopa substrate, ± SD) was 43.7 ± 3.18% and the IC50 [1, 5] was 175.3 ± 0.24 µM.
In the case of `O=C(O)/C=C/c1ccc(O)c(O)c1` [caffeic acid], the Tyrosinase inhibitory potential [2] is given as “almost inactive”.
With `O=C(OCCN1CCN(c2ccc([N+](=O)[O-])cc2)CC1)c1ccc([N+](=O)[O-])cc1Cl` [Compound 4f, 2-(4-(4-Nitrophenyl)piperazin-1-yl)ethyl 2-chloro-4-nitrobenzoate] the inhibition at 100 µM ([1]; 100 μM, L-dopa substrate, ± SD) was 35.1 ± 2.25%, the IC50 [1, 5] was over 200 µM and the melting point was 203 to 205 °C.
In the case of `O=C(OCCN1CCN(c2ccc([N+](=O)[O-])cc2)CC1)c1cccnc1` [Compound 4k, 2-(4-(4-Nitrophenyl)piperazin-1-yl)ethyl nicotinate], the IC50 [1] is reported as 82.7 ± 1.16 µM, the inhibition at 100 µM ([1]; 100 μM, L-dopa substrate, ± SD) is reported as 54.3 ± 4.58% and the melting point is reported as 168 to 170 °C.
In the case of `COc1ccc(/C=C/C(=O)N2CCN(c3ccc(F)c(Cl)c3)CC2)cc1[N+](=O)[O-]` [D], the IC50 [2] is listed as 510 nM.
For `O=C(Cc1ccccc1)OCCN1CCN(c2ccc([N+](=O)[O-])cc2)CC1` [Compound 4i, 2-(4-(4-Nitrophenyl)piperazin-1-yl)ethyl 2-phenylacetate], the IC50 [1] was 184.2 ± 0.88 µM, the inhibition at 100 µM [1] was 39.4 ± 4.18% and the melting point was 178 to 180 °C.
In the case of `CN1CCN(C(=O)/C=C/c2ccc(O)cc2O)CC1` [C], the “% inhibition” value ([2]; at 25 μM) is listed as 94.39%, the Cellular tyrosinase activity [3] is listed as “dose-dependently inhibited” and the Melanin content [3] is listed as “dose-dependently inhibited”.
`O=C(C=Cc1ccccc1)OCCN1CCN(c2ccc([N+](=O)[O-])cc2)CC1` [Compound 4j, 2-(4-(4-Nitrophenyl)piperazin-1-yl)ethyl cinnamate] gave an IC50 [1] of over 200 µM, an inhibition at 100 µM ([1]; 100 μM, L-dopa substrate, ± SD) of 23.1 ± 3.6% and a melting point of 185 to 187 °C.
`O=C(OCCN1CCN(c2ccc([N+](=O)[O-])cc2)CC1)c1cccc([N+](=O)[O-])c1` [Compound 4e, 2-(4-(4-Nitrophenyl)piperazin-1-yl)ethyl 3-nitrobenzoate] gave an inhibition at 100 µM ([1]; 100 μM, L-dopa substrate, ± SD) of 24.9 ± 2.81%, an IC50 [1, 5] of over 200 µM and a melting point of 181 to 183 °C.
`COc1ccc(C=O)c(C(=O)OCCN2CCN(c3ccc([N+](=O)[O-])cc3)CC2)c1OC` [Compound 4h, 2-(4-(4-Nitrophenyl)piperazin-1-yl)ethyl 6-formyl-2,3-dimethoxybenzoate] gave an IC50 [1] of 200.9 ± 1.32 µM, an inhibition at 100 µM ([1]; 100 μM, L-dopa substrate, ± SD) of 26.9 ± 3.55% and a melting point of 176 to 178 °C.
With `COc1ccc(CC(=O)OCCN2CCN(c3ccc([N+](=O)[O-])cc3)CC2)cc1` [Compound 4g, 2-(4-(4-Nitrophenyl)piperazin-1-yl)ethyl 2-(4-methoxyphenyl)acetate] the IC50 [1] was over 200 µM, the inhibition at 100 µM ([1]; 100 μM, L-dopa substrate, ± SD) was 30 ± 4.04% and the melting point was 207 to 209 °C.
For `O=C(OCCN1CCN(c2ccc([N+](=O)[O-])cc2)CC1)c1ccc(Cl)cc1Cl` [Compound 4c, 2-(4-(4-Nitrophenyl)piperazin-1-yl)ethyl 2,4-dichlorobenzoate], the IC50 [1] was over 200 µM, the inhibition at 100 µM ([1]; 100 μM, L-dopa substrate, ± SD) was 27.9 ± 3.09% and the melting point was 196 to 198 °C.
With `O=C(OCCN1CCN(c2ccc([N+](=O)[O-])cc2)CC1)c1ccc([N+](=O)[O-])cc1` [Compound 4d, 2-(4-(4-Nitrophenyl)piperazin-1-yl)ethyl 4-nitrobenzoate] the inhibition at 100 µM ([1]; 100 μM, L-dopa substrate, ± SD) was 28.3 ± 2.89%, the IC50 [1, 5] was 203.2 ± 1.16 µM and the melting point was 172 to 174 °C.
Molecule `O=C(OCCN1CCN(c2ccc([N+](=O)[O-])cc2)CC1)c1cc2ccccc2[nH]1` [Compound 4l, 2-(4-(4-Nitrophenyl)piperazin-1-yl)ethyl 1H-indole-2-carboxylate] has an IC50 [1] of 72.55 ± 0.49 µM, an inhibition at 100 µM ([1]; 100 μM, L-dopa substrate, ± SD) of 66.6 ± 4.12% and a melting point of 192 to 194 °C. For the same molecule, the Inhibition mode ([4]; Lineweaver–Burk plot, L-dopa substrate) was “mixed inhibitor; also recorded: mixed-type inhibition”, the Vmax ([4]; inhibitor concentration 10 µM) was 65.79 mM/min and the Vmax ([4]; inhibitor concentration 40 µM) was 64.10 mM/min. For the same molecule, the Vmax ([4]; inhibitor concentration 100 µM) was 62.89 mM/min.
In the case of `O=C(OCCN1CCN(c2ccc([N+](=O)[O-])cc2)CC1)c1ccccc1` [Compound 4a, 2-(4-(4-Nitrophenyl)piperazin-1-yl)ethyl benzoate], the IC50 [1] is reported as 174.7 ± 0.68 µM, the inhibition at 100 µM ([1]; 100 μM, L-dopa substrate, ± SD) is reported as 35.8 ± 3.24% and the melting point is reported as 176 to 178 °C.
For `O=C(c1ccccc1C(F)(F)F)N1CCN(Cc2ccc(F)cc2)CC1` [E], the IC50 [2] is given as 480 ± 50 nM.
`O=C(OCCN1CCN(c2ccc([N+](=O)[O-])cc2)CC1)c1ccccc1Br` [Compound 4b, 2-(4-(4-Nitrophenyl)piperazin-1-yl)ethyl 2-bromobenzoate] gave an IC50 [1] of over 200 µM, an inhibition at 100 µM ([1]; 100 μM, L-dopa substrate, ± SD) of 20.6 ± 2.58% and a melting point of 185 to 187 °C.

From publication PMC10998383, “Nitrophenylpiperazine derivatives as novel tyrosinase inhibitors: design, synthesis, and in silico evaluations” (BMC Chemistry, 2024)
